In US11078207B2, “Substituted pyrrolo[2,3-d]pyrimidines as HER2 inhibitors” (TAIHO PHARMACEUTICAL CO., LTD., priority 2019, dated 2021):

Legend:
[1] = biological target: T1, HER2 (Homo sapiens, UniProt P04626); test: Inhibitory effect (in vitro) on HER2 phosphorylation activity; format: biochemical; details: recombinant human HER2, ATP 5 μM, 25° C. 30 minutes
T1 construct: purchased Carna Biosciences, Inc
Source text: In order to determine conditions for a method of measuring the in vitro inhibitory activity of a compound against HER2 phosphorylation activity, based on the report regarding a HER2 kinase reaction using, as a substrate, a peptide having the same sequence (5-FAM-[…]-CONH2) as that of ProfilerPro Peptide 22 of PerkinElmer (Xie H et al., PLoS One. 2011; 6(7): e21487), ProfilerPro Peptide 22 was used as a substrate. A purified recombinant human HER2 protein used in the present test was purchased from Carna Biosciences, Inc. Upon the measurement of the inhibitory activity of the compound, first, the compound of the present invention was diluted stepwise with dimethyl sulfoxide (DMSO). […] To the reaction solution, EDTA was added to a final concentration of 30 mM, so as to terminate the reaction. Finally, using LabChip (registered trademark) EZ Reader II (PerkinElmer), an unphosphorylated substrate peptide (S) and a phosphorylated peptide (P) were separated and detected according to microchannel capillary electrophoresis.

[2] = biological target: HER2 exon 20 insertion mutant (HER2ex20insYVMA, A775_G776insYVMA) (Homo sapiens, UniProt P04626, DUP772-775); test: Inhibitory action (in vitro) against HER2 exon 20 insertion mutant phosphorylation activity; format: biochemical; details: 30 min pre-incubation, ATP 200 μM, 25° C. 220 minutes
Source text: In order to determine conditions for a method of measuring the in vitro inhibitory activity of a compound against HER2 exon 20 insertion mutant phosphorylation activity, as in the case of HER2, ProfilerPro Peptide 22 was used as a substrate. A purified recombinant human HER2 exon 20 insertion mutant (A775_G776insYVMA) protein is shown in SEQ ID NO: 7, and was purchased from SignalChem. Upon the measurement of the inhibitory activity of the compound, first, the compound of the present invention was diluted stepwise with dimethyl sulfoxide (DMSO). Subsequently, the HER2 exon 20 insertion mutant protein and the compound of the present invention in DMSO solution (final concentration of DMSO: 5%) were added into a buffer for the kinase reaction (13.5 mM Tris (pH 7.5), 2 mM dithiothreitol, and 0.009% Tween 20), and the obtained mixture was then pre-incubated at 25° C. for 30 minutes. Thereafter, the substrate peptide (final concentration: 1 μM), manganese chloride (final concentration: 25 mM), magnesium chloride (final concentration: 20 mM), and ATP (final concentration: 200 μM) were added into the reaction mixture, and the thus obtained mixture was then incubated at 25° C. for 220 minutes, so that the kinase reaction was carried out. To the reaction solution, EDTA was added to a final concentration of 30 mM, so as to terminate the reaction. Finally, using LabChip (registered trademark) EZ Reader II (PerkinElmer), an unphosphorylated substrate peptide (S) and a phosphorylated peptide (P) were separated and detected according to microchannel capillary electrophoresis.

[3] = test system: SK-BR-3 cells; test: Growth inhibitory activity against HER2 expressing cell line SK-BR-3; format: cell-based; details: Homo sapiens, SK-BR-3, 72 h; 3 days, CellTiter-Glo 2.0
Protocol: SK-BR-3 cells as a HER2 overexpressing human breast cancer cell line were suspended in a McCoy's 5a medium (manufactured by Life Technologies) supplemented with 10% fetal bovine serum. The cell suspension was seeded in each well of a 384-well flat-bottom microplate, and was then cultured in a 5% carbon dioxide gas-containing culture vessel at 37° C. for 1 day. Thereafter, the compound of the present invention was dissolved in DMSO, and the compound was diluted to 500 times the final concentration in DMSO. The compound in the DMSO solution was diluted with DMSO solution or the medium used in the suspension of the cells, and the obtained solution was then added to each well of the culture plate so that the final concentration of DMSO was 0.2%. The obtained mixture was further cultured in the 5% carbon dioxide gas-containing culture vessel at 37° C. for 3 days. After completion of the culture for 3 days in the presence of the compound, the cells were counted using CellTiter-Glo 2.0 (manufactured by Promega), and the growth inhibition percentage was then calculated according to the following equation. […] Growth inhibitory percentage (%)=(C−T)/(C)×100 T: Emission intensity from the well to which the test compound was added C: Emission intensity from the well to which the test compound was not added

[4] = biological target: Ba/F3-HER2insYVMA cells (Homo sapiens, UniProt P04626, DUP772-775, cells depend on it); test: Growth inhibitory activity against HER2 exon 20 insertion mutant expressing cell line; format: cell-based, mouse; details: 3 days, CellTiter-Glo 2.0, read-out: HER2ex20insYVMA cell growth inhibitory activity IC50 value
Protocol: Growth inhibitory activity against the HER2 exon 20 insertion mutant was measured using Ba/F3 cells that were a mouse B lymphocyte precursor cell line, into which a human HER2 exon 20 insertion mutant gene had been introduced. The Ba/F3 cells were maintained in an RPMI-1640 medium (Thermo Fisher Scientific) supplemented with 10% fetal bovine serum (FBS), 100 U/mL penicillin, 100 μg/mL streptomycin (Thermo Fisher Scientific) and 1 ng/mL mouse interleukin-3 (mIL-3) (CST).
Upon evaluation of cell growth inhibitory activity, the Ba/F3-HER2insYVMA cells were suspended in an RPMI-1640 medium supplemented with 10% FBS, 100 U/mL penicillin, and 100 μg/mL streptomycin. The cell suspension was seeded in each well of a 96-well flat-bottom microplate, and was then cultured in a 5% carbon dioxide gas-containing culture vessel at 37° C. for 1 day. The compound of the present invention was dissolved in DMSO, and was then diluted with DMSO or the medium used in the suspension of the cells. The obtained solution was then added to each well of the culture plate, so that the final concentration of DMSO became 0.2%. The obtained mixture was further cultured in the 5% carbon dioxide gas-containing culture vessel at 37° C. for 3 days. After completion of the culture for 3 days in the presence of the compound, the cells were counted using CellTiter-Glo 2.0 (manufactured by Promega), and the growth inhibition percentage was then calculated according to the following equation. […] Growth inhibitory percentage (%)=(C−T)/(C)×100 T: Emission intensity from the well to which the test compound was added C: Emission intensity from the well to which the test compound was not added

[5] = test system: NCI-N87 cells; test: Growth inhibitory activity against HER2 expressing cell line NCI-N87; format: cell-based; details: Homo sapiens, NCI-N87, 72 h; 3 days, CellTiter-Glo 2.0
Protocol: NCI-N87 cells as a HER2 overexpressing human stomach cancer cell line (American Type Culture Collection, Cat No. ATCC (registered trademark) CRL-5822) were suspended in an RPMI640 medium (Wako Pure Chemical Industries, Ltd.) supplemented with 10% fetal bovine serum. Subsequently, the cell suspension was seeded in each well of a 96-well flat-bottom microplate, and was then cultured in a 5% carbon dioxide gas-containing culture vessel at 37° C. for 1 day. Thereafter, the compound of the present invention was dissolved in DMSO, and the compound was diluted to 1000 times the final concentration in DMSO. The compound in the DMSO solution was diluted with the medium used in the suspension of the cells, and the obtained solution was then added to each well of the culture plate, so that the final concentration of DMSO became 0.1%. Regarding a control well, DMSO was diluted with the medium used in the suspension of the cells, and the obtained solution was then added to each well of the culture plate, so that the final concentration of DMSO became 0.1%. After addition of a drug solution, the obtained mixture was further cultured in the 5% carbon dioxide gas-containing culture vessel at 37° C. for 3 days. After completion of the culture for 3 days in the presence of the compound, the cells were counted using CellTiter-Glo 2.0 (manufactured by Promega) in accordance with the protocols recommended by Promega. The growth inhibition percentage was calculated according to the following equation. […] Growth inhibitory percentage (%)=(C−T)/(C)×100 T: Emission intensity from the well to which the test compound was added C: Emission intensity from the well to which the test compound was not added

[6] = Evaluation of oral absorbability; format: in vivo, BALB/cA mice; details: mouse; plasma, oral 50 mg/kg/day, BALB/cA mice
Protocol: The compound of the present invention was suspended or dissolved in 0.5% HPMC aqueous solution and 0.1 N hydrochloric acid, and the obtained suspension or solution was orally administered to BALB/cA mice (CLEA Japan, Inc.) at a dose of 50 mg/kg/day. At 0.5, 1, 2, 4 and 6 hours after completion of the oral administration, blood was collected from the facial vein over time, so as to obtain plasma. The concentration of the compound in the obtained plasma was measured by LC-MS/MS, and the oral absorbability of the present compound was evaluated.

[7] = test system: p-gp or Bcrp; details: Non Patent Literature 5; cited from earlier work
[8] = non-clinical tests, Non Patent Literature 5; cited from earlier work
[9] = test system: brain metastatic cancer; details: clinical tests, Non Patent Literatures 6-9; cited from earlier work

T1 sequence (P04626 23-1255): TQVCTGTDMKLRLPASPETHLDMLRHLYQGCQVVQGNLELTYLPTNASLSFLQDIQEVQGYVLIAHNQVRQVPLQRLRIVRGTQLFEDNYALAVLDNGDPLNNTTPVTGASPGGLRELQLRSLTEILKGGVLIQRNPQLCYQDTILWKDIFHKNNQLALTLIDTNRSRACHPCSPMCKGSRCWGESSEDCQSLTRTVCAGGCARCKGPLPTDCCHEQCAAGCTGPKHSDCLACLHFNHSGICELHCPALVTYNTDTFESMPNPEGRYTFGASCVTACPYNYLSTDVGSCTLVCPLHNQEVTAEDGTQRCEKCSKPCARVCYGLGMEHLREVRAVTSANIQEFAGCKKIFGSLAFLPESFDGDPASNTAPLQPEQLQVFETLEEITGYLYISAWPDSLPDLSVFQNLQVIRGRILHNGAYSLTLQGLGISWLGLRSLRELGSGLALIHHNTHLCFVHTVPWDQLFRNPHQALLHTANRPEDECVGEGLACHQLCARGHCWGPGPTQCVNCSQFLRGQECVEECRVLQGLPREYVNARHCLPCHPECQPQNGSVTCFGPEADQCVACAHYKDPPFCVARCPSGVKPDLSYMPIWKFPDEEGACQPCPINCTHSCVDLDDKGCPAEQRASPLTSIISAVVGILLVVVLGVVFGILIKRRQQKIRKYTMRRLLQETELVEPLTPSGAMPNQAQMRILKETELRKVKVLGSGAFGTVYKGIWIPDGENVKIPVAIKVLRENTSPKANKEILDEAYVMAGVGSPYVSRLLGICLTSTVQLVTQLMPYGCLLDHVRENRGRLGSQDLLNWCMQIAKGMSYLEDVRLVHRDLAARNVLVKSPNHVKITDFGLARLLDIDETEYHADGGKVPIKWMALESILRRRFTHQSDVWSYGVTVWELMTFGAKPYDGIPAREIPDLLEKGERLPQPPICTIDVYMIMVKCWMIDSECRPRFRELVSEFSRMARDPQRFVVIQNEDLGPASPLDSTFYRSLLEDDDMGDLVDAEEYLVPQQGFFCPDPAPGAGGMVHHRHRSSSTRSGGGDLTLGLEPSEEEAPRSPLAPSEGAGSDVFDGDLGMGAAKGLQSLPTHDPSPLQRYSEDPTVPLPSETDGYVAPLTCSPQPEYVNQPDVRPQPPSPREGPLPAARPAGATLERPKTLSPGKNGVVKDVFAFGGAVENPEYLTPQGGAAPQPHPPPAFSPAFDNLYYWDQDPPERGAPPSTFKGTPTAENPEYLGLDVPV
Ba/F3-HER2insYVMA cells, sequence (P04626 with tags, fused parts or gaps DUP772-775): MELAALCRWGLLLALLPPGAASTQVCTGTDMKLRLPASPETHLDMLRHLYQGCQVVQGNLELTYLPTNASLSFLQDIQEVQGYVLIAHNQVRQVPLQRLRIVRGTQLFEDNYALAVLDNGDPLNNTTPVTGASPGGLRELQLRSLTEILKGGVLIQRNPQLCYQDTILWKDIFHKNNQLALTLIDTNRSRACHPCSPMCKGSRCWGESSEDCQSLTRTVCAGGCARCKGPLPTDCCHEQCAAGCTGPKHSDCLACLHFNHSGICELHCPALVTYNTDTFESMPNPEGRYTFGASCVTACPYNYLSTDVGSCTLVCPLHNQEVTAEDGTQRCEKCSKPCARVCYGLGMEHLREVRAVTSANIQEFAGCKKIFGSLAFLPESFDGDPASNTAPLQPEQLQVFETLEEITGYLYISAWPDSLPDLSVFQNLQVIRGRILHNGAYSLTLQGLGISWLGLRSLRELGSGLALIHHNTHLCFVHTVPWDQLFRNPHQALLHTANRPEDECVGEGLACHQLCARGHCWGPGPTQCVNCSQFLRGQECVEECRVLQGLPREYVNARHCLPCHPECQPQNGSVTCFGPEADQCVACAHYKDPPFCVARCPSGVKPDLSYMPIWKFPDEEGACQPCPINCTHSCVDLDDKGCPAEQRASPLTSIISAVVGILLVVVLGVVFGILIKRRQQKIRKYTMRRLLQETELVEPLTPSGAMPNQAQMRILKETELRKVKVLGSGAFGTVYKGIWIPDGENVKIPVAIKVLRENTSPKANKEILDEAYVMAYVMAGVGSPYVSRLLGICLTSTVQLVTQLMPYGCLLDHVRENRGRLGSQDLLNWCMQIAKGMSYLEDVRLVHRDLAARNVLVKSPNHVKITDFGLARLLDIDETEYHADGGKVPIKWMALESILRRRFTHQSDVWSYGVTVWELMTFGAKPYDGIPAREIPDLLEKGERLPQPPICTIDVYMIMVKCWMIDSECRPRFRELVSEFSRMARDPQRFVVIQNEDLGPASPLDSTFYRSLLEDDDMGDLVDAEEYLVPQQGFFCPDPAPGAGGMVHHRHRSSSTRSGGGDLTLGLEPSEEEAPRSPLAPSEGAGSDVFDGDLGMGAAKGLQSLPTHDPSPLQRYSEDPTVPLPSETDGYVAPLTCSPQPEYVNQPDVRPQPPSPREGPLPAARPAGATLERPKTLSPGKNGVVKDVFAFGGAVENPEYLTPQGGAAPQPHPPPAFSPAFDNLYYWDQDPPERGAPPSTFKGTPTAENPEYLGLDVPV
HER2 exon 20 insertion mutant (HER2ex20insYVMA, A775_G776insYVMA), sequence (P04626 with tags, fused parts or gaps DUP772-775): as above

`C=CC(=O)N1C[C@H](n2c(C#CC3CC3)c(C(=O)N[C@H](C)c3ccccc3)c3c(N)ncnc32)C[C@@H]1COCC` [Example 19, 7-((3R,5R)-1-acryloyl-5-(ethoxymethyl)pyrrolidin-3-yl)-4-amino-6-(cyclopropylethynyl)-N—((R)-1-phenylethyl)-7H-pyrrolo[2,3-d]pyrimidine-5-carboxamide] showed an IC50 [1] of 4.4 nM, an IC50 [2] of 1.1 nM and an IC50 [3] of 17 nM. It also gave a GI50 [4] of 50 nM, an IC50 [5] of 7.9 nM and an AUC(0-t) [6] of 6.1 µM·h.

In the case of `CS(=O)(=O)CCNCc1ccc(-c2ccc3ncnc(Nc4ccc(OCc5cccc(F)c5)c(Cl)c4)c3c2)o1` [Lapatinib], the “substrate of p-gp or Bcrp” value [7] is listed as “substrates of p-gp or Bcrp”, the brain penetration properties [8] is listed as “limited” and the “effects against brain metastatic cancer” value [9] is listed as “sufficient effects of these agents could not be obtained”.

In the case of `CCOc1cc2ncc(C#N)c(Nc3ccc(OCc4ccccn4)c(Cl)c3)c2cc1NC(=O)/C=C/CN(C)C` [Neratinib], the “substrate of p-gp or Bcrp” value [7] is given as “substrates of p-gp or Bcrp”, the brain penetration properties [8] is given as “limited” and the “effects against brain metastatic cancer” value [9] is given as “sufficient effects of these agents could not be obtained”.
